Measured values published in publication PMC8092108, “Mycophenolate suppresses inflammation by inhibiting prostaglandin synthases: a study of molecular and experimental drug repurposing” (PeerJ, 2021).

Tests used:
[1] = target: T1, COX-2 (Homo sapiens, UniProt P35354); assay: COX inhibitor screening assay, COX-2; format: biochemical
T1 construct: purchased
T1 sequence (P35354 18-604): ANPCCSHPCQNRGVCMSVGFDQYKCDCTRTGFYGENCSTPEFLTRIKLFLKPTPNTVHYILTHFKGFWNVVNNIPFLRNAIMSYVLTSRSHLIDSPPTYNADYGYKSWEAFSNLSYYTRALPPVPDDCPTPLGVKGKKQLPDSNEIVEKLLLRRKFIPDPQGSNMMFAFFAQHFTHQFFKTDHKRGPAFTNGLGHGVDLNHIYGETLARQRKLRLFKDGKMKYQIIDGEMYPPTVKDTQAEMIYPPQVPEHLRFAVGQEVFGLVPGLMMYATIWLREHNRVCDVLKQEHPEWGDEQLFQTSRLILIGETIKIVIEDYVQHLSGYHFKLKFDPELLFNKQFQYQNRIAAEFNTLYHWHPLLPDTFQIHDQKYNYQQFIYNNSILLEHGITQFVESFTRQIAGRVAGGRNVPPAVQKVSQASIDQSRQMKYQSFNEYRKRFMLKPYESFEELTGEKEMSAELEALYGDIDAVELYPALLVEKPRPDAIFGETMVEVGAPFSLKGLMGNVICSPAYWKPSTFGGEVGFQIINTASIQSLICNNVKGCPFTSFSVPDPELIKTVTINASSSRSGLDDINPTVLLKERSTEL
Procedure: The inhibitory effects of the drugs MMF and MPA on COX-1 and COX-2 were measured using the COX inhibitor screening assay kit and LOX inhibitor screening kit. […] Briefly, the reaction buffer (Tris–HCl buffer, pH 8.0) containing 5 mM EDTA, 2 mM phenol, and 1 µM hematin was measured into test tubes. The test drugs were dissolved in dimethyl sulfoxide and added to the tubes to final concentrations of […]. COX-1 or COX-2 was added to the test tubes and preincubated for 10 min at 37 °C. Arachidonic acid was then added, and the tubes were incubated for 2 min at 37 °C. The enzyme immunoassay was used to measure the concentration of the product prostaglandin F2α (PGF2α). The estimated values were determined after comparison to the predetermined standard curve. The IC50 was determined after three different experiments. The selectivity index was calculated from Eq. (1):
(1) Selectivity index=IC50COX−1/IC50COX−2

[2] = cited from earlier work

COc1c(C)c2c(c(O)c1C/C=C(\C)CCC(=O)OCCN1CCOCC1)C(=O)OC2 [Mycophenolate mofetil]
IC50 [1]: 190 nM | Maximal serum concentration (Cmax) ([2]; after 1–2 g oral doses, ref Ferreira et al., 2020): 18000 to 20000 ng/mL | Conversion to MPA by liver carboxylesterases 1 and 2 ([2]; after oral intake, ref Lamba et al., 2014): completely converted to MPA
